# Measured values reported in patent publication US11859203B2, “Cell culture methods” (UCB BIOPHARMA SRL, priority 2017, dated 2024).
# Columns and labels:
# Type in all cases: cell-based, Chinese Hamster
# [1] = test system: CHO-DG44 cells producing a multispecific antibody derivative (cell line 2); assay: Fed-batch shake flask culture with cysteine/cystine derivatives, cell line 2 (Example 2); conditions: 50% replacement; day 14; cell line 2, shake flask
# Experimental: The ability of cysteine/cystine derivatives to reduce color and acidic species of a recombinant protein preparation in cell culture was evaluated using another antibody-producing cell line, cell line 2. For this experiment a scale-down model in shake flask was used. CHO-DG44 cells producing a multispecific antibody derivative were inoculated in 100 mL of basal media at a seeding density of 0.35×10^6 cells/mL. The shake flask vessels were 250 mL shake flasks (corning) disposed in an agitated incubator (Infors) protected from light. The cells were cultivated for 14 days at 36.8° C. with 80% of humidity. The cell cultures were agitated at 140 rpm at the beginning of the process. The agitation was increased during the process progressively to reach 250 rpm to maintain a DO % at 40% in the shake flask, as is it done in the 2 L bioreactor process. […]
# The cysteine present in the Feed was replaced by different cysteine and cystine derivatives with a replacement ratio of 50% equimolar (Table 1). […] Osmolality was daily monitored using an osmometer from Advanced instrument. Off line pH, dissolved O2 and dissolved CO2 were daily monitored using a Nova Biomedical Phox (Nova biomedical). Metabolites concentrations were daily determined using a CedexBioHT system (Roche). Viable cell concentration and cell viability were measured daily using a ViCell automated cell counter (Beckman Coulter). […]
# [2] = test system: CHO-DG44 cells from cell line 1; assay: Fed-batch 2 L bioreactor culture with cysteine/cystine derivatives, cell line 1 (Example 3); conditions: 50% replacement, cell line 1, 2 L bioreactor
# Experimental: (§1) The ability of cysteine/cystine derivatives to reduce color and acidic species of a recombinant protein preparation produced in cell culture was evaluated in a bioreactor for two cell lines. This model is more representative of the large-scale production than the shake flask due to the geometry and additional control. CHO-DG44 cells from cell line 1 and 2 were inoculated in 1300 mL of basal media at a seeding density of 0.35×10^6 cells/mL in 2 L stirred bioreactor (Sartorius). The cells were cultivated during 14 days in fed-batch mode. The cell cultures were agitated at 280 rpm and the DO was maintained at 40%. The cell culture was maintained at pH 7.0±0.2 with an automatic CO2 sparging regulation. Cells were cultured in a fed-batch mode with bolus addition of Feed every day of culture. The basal media contained 0.04 mmol/L of cysteine+0.38 mmol/L of cystine. The Feed contained 153.3 mmol/L of cystine. Over the entire 14-day production phase, the total volume of Feed added corresponded to 5.7% (w/w) of the culture start volume for cell line 1 and to 3.1% (w/w) of the culture start volume for cell line 2.
# (§2) The cysteine present in the Feed was replaced by different cysteine- and cystine derivatives at different percentages as presented in Table 2. A condition with only 50% of cysteine was added to test whether the improvements observed were due to the cysteine derivative or to the reduction of cysteine only. Osmolality was daily monitored using an osmometer from Advanced instrument. Off line pH, dissolved O2 and dissolved CO2 were daily monitored using a Nova Biomedical Phox (Nova biomedical). Metabolites concentrations were daily determined using a CedexBioHT system (Roche). Viable cell concentration and cell viability were measured daily using a ViCell automated cell counter (Beckman Coulter). The cell culture fluid was collected daily by centrifuging 1 mL of cell culture fluid for determination of antibody titer by HPLC prot A (waters) or using protein-L Octet measurement (Pall). At the end of the 14 days of culture, the cell culture fluid was harvested by centrifugation. The supernatant was then purified using a protein-A or L affinity chromatography (GE). The protein-A or L eluates were used for the molecular weight determination using UPLC size exclusion (Waters) and for the charge variants determination using isocapillary focusing (PROTEINSIMPLE iCE3). Another part of the protein-A eluates (only from cell line 1) was concentrated to 40 mg/mL using Amicon centricon centrifugal filter devices (Millipore). Color intensity of the concentrated antibody composition was measured in the concentrated protein A eluates using a spectrophotometer by transmission (UltrascanPro) and compared to the CIE (commission internationale de l'éclairage) scale. The numerical results were normalized to the concentration of 40 mg/mL.
# [3] = test system: CHO-DG44 cells from cell line 2; assay: Fed-batch 2 L bioreactor culture with cysteine/cystine derivatives, cell line 2 (Example 3); conditions: 50% replacement; cell line 2, 2 L bioreactor
# Experimental: as §1, §2
# cell line 1 = assay: Reproducibility in 2 L bioreactor, cell line 1, average of data sets 1 and 2 (Example 4); conditions: 50% replacement
# Experimental: as §1, §2
# The reproducibility of the results was evaluated in bioreactor with cell line 1. The experiments of Example 3 were repeated with an additional control and a bioreactor with 50% S-sulfocysteine 50% Cysteine Feed. The data from the two experiments were analyzed to confirm the effect previously observed with cysteine/cystine derivatives.
# [4] = test system: CHO-DG44 cells from cell line 1; assay: Fed-batch Ambr15 mini bioreactor culture, different replacement levels, cell line 1 (Example 5); conditions: at optimum, around 70% of replacement
# Experimental: We tested different concentrations of cysteine/cystine derivatives on the improvement on the APG level of a recombinant protein preparation produced in cell culture cultivated in mini bioreactors. CHO-DG44 cells from cell line 1 were inoculated in 12 mL basal media at a seeding density of 0.35×10^6 cells/mL in Ambr15 bioreactors (Sartorius). The cells were cultivated in fed-batch mode during 14 days. The DO was maintained at 40% and the pH was maintained 7.0±0.2 with an automatic CO2 sparging regulation. Viable cell concentration and cell viability were measured daily using a ViCell automated cell counter (Beckman Coulter). Cells were cultured in a fed-batch mode with a daily bolus addition of Feed. The basal media contained 0.04 mmol/L cysteine+0.38 mmol/L cystine. The Feed contained 153.3 mmol/L of cystine. Over the entire 14-day production phase, the total volume of added Feed corresponded to 4.7% (v/v) of the culture start volume.
# Different percentages of cysteine present in the Feed was replaced by different cysteine- and cystine analogs. Table 4 provides an overview of different percentages tested and their equivalence in molar ratio relative to cysteine or cystine. E.g. for N-Acetyl-L-cysteine 10% means that 10% molar amount of cysteine equivalent has been replaced by 10% molar amount of N-Acetyl-L-cysteine; for N,N′-Diacetyl-L-cystine, 10% means that 10 molar amount of cystine equivalent has been replaced with 10% molar amount of N,N′-Diacetyl-L-cystine. At the end of the 14 days of culture, the cell culture fluid was harvested by centrifugation. The supernatant was then purified using a protein-A affinity chromatography (GE). The protein-A eluates were used for the charge variants determination using isocapillary focusing (PROTEINSIMPLE iCE3).
compound,measurement,setting,value
"CC(=O)N[C@@H](CS)C(=O)O [N-acetyl-L-cysteine, N-Acetyl-L-cysteine]",decrease on acidic variants level compared to control,[1],14.5%
same,decrease of acidic species level compared to control,[2],10%
same,main species level,[2],increase of main species
same,decrease of the b value level (color intensity) compared to control,[2]; 40 mg/mL,13%
same,decrease of acidic species level compared to control,[3],13%
same,main species level,[3],increase of main species
same,specific productivity,cell line 1; compared to 50% cysteine feed,did not impact the productivity
same,average decrease of acidic species level compared to control,cell line 1; data sets 1 and 2 average,10%
same,average decrease of b value level (color intensity) compared to control,cell line 1; data sets 1 and 2 average,13%
same,decrease in antibody titer compared to the controls average,cell line 1; data sets 1 and 2 average,10%
same,main species level,cell line 1; data sets 1 and 2 average,increase of main species
same,cell growth (VCC) compared to control,"cell line 1; from day 9, 2 L bioreactor, data sets 1 and 2",higher VCCs than the control conditions
same,decrease of acidic species,[4],12.5%
